According to US8901313B2, “6,5-heterocyclic propargylic alcohol compounds and uses therefor” (Genentech, Inc., priority 2011, dated 2014):

Target: T1, nuclear factor-kappa B (NF-kB)-inducing kinase (NIK) (Homo sapiens, UniProt Q99558)
T1 construct: made in house; host or cells: baculovirus-infected insect cells
Assay: NIK Enzyme Inhibition Assay (Transcreener ADP assay)
Assay type: biochemical
Conditions: purified NIK 0.2-1 nM, 10 uM ATP, fluorescence polarization, Morrison's quadratic equation; read-out: inhibitory value (Ki) for NIK

T1 sequence (Q99558 whole entry): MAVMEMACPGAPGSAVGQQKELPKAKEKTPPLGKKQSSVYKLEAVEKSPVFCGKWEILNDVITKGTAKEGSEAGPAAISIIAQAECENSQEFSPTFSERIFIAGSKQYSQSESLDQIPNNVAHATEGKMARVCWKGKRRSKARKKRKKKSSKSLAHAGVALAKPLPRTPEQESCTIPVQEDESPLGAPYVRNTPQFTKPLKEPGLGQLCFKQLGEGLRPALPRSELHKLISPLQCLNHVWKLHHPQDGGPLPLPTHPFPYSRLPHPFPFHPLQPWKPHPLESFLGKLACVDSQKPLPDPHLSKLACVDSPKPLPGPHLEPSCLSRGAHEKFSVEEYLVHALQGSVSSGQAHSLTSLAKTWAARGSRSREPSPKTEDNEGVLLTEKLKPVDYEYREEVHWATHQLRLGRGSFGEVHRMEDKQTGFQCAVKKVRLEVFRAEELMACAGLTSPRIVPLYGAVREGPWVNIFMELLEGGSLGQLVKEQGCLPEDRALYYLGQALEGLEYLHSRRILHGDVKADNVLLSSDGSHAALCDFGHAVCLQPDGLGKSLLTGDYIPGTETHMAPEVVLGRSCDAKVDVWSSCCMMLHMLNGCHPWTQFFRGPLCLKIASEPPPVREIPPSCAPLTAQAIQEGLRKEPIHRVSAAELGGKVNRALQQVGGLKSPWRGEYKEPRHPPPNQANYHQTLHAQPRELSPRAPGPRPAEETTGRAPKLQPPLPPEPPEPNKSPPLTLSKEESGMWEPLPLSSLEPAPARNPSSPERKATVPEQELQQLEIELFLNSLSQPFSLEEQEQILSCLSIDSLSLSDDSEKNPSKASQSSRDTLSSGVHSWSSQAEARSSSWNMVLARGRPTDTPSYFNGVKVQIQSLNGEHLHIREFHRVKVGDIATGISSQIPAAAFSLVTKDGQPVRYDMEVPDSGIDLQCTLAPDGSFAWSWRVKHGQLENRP

| SMILES | Ki |
| --- | --- |
| CC1CN(C(=O)c2nn(-c3ccnc(N)n3)c3cc(C#CC(C)(O)c4ncccn4)ccc23)CC(C)O1 (stereo not shown) [Example T1.1-74, [1-(2-aminopyrimidin-4-yl)-6-(3-hydroxy-3-pyrimidin-2-yl-but-1-ynyl)indazol-3-yl]-(2,6-dimethylmorpholin-4-yl) methanone] | 13 nM |
| CC(O)(C#Cc1ccc2c(C(=O)N3CCOCC3)nn(-c3ccnc(N)n3)c2c1)CF (stereo not shown) [Example T1.1-75, [1-(2-aminopyrimidin-4-yl)-6-(4-fluoro-3-hydroxy-3-methyl-but-1-ynyl)indazol-3-yl]-morpholino-methanone] | 14 nM |
| Cc1nn(-c2ccnc(N)n2)c2cc(C#CC(C)(O)c3cocn3)ccc12 (stereo not shown) [Example T1.1-76, 4-[1-(2-aminopyrimidin-4-yl)-3-methyl-indazol-6-yl]-2-oxazol-4-yl-but-3-yn-2-ol] | 16 nM |
| CC(O)(C#Cc1ccc2c(CN3CCOCC3)nn(-c3ccnc(N)n3)c2c1)c1ncccn1 (stereo not shown) [Example T1.1-78, 4-[1-(2-aminopyrimidin-4-yl)-3-(morpholinomethyl)indazol-6-yl]-2-pyrimidin-2-yl-but-3-yn-2-ol] | 20 nM |
| Cc1cc(C(C)(O)C#Cc2ccc3c(C(NC4CCCC4)C4CC4)nn(-c4ccnc(N)n4)c3c2)no1 (stereo not shown) [Example T1.1-79, 4-[1-(2-aminopyrimidin-4-yl)-3-[(cyclopentylamino)-cyclopropyl-methyl]indazol-6-yl]-2-(5-methyl-isoxazol-3-yl)but-3-yn-2-ol] | 20 nM |
| Cc1nc([C@](C)(O)C#Cc2ccc3c(c2)n(-c2ccnc(N)n2)c(=O)n3CC2CC2)no1 [Example T1.1-81, 3-(2-aminopyrimidin-4-yl)-1-(cyclopropylmethyl)-5-[(3R)-3-hydroxy-3-(5-methyl-1,2,4-oxadiazol-3-yl)but-1-ynyl] benzimidazol-2-one] | 24 nM |
| Cc1noc(C(C)(O)C#Cc2ccc3c(C(=O)N(C)C)nn(-c4ccnc(N)n4)c3c2)n1 (stereo not shown) [Example T1.1-82, 1-(2-aminopyrimidin-4-yl)-6-[3-hydroxy-3-(3-methyl-1,2,4-oxadiazol-5-yl)but-1-ynyl]-N,N-dimethyl-indazole-3-carboxamide] | 25 nM |
| Cn1cnc(C(C)(O)C#Cc2ccc3c(C(=O)N4CCOCC4)nn(-c4ccnc(N)n4)c3c2)n1 (stereo not shown) [Example T1.1-83, [1-(2-aminopyrimidin-4-yl)-6-[3-hydroxy-3-(1-methyl-1,2,4-triazol-3-yl)but-1-ynyl]indazol-3-yl]-morpholino-methanone] | 25 nM |
| COCc1cc(C(C)(O)C#Cc2ccc3c(C(=O)N4CCOCC4)nn(-c4ccnc(N)n4)c3c2)no1 (stereo not shown) [Example T1.1-84, [1-(2-aminopyrimidin-4-yl)-6-[3-hydroxy-3-[5-(methoxymethyl)isoxazol-3-yl]but-1-ynyl]indazol-3-yl]-morpholino-methanone] | 27 nM |
| Cc1cc(C(C)(O)C#Cc2ccc3c(C(NC4CCCC4)C4CC4)nn(-c4ccnc(N)n4)c3c2)no1 (stereo not shown) [Example T1.1-85, 4-[1-(2-aminopyrimidin-4-yl)-3-[(cyclopentylamino)-cyclopropyl-methyl]indazol-6-yl]-2-(5-methyl-isoxazol-3-yl)but-3-yn-2-ol] | 27 nM |
| Nc1nccc(-n2nc(C(=O)N3CCOCC3)c3ccc(C#CC(O)(CF)CF)cc32)n1 [Example T1.1-86, [1-(2-aminopyrimidin-4-yl)-6-[4-fluoro-3-(fluoromethyl)-3-hydroxy-but-1-ynyl]indazol-3-yl]-morpholino-methanone] | 31 nM |
| Cn1cc(-c2cnc(N)nc2-n2ncc3ccc(C#CC(C)(C)O)cc32)cn1 [Example T1.1-87, 4-[1-[2-amino-5-(1-methyl-pyrazol-4-yl)pyrimidin-4-yl]indazol-6-yl]-2-methyl-but-3-yn-2-ol] | 39 nM |
| Cc1cc([C@@](C)(O)C#Cc2ccc3c(C(=O)N4CCOCC4)nn(-c4ccnc(N)n4)c3c2)no1 [Example T1.1-88, [1-(2-aminopyrimidin-4-yl)-6-[(3S)-3-hydroxy-3-(5-methylisoxazol-3-yl)but-1-ynyl]indazol-3-yl]-morpholino-methanone] | 46 nM |
| CN1CCN(C(=O)c2nn(-c3ccnc(N)n3)c3cc(C#CC(C)(O)c4ncccn4)ccc23)CC1 (stereo not shown) [Example T1.1-89, [1-(2-aminopyrimidin-4-yl)-6-(3-hydroxy-3-pyrimidin-2-yl-but-1-ynyl)indazol-3-yl]-(4-methylpiperazin-1-yl)methanone] | 52 nM |
| Cc1nn(-c2ccnc(N)n2)c2cc(C#CC(C)(O)c3nccn3C)ccc12 (stereo not shown) [Example T1.1-90, 4-[1-(2-aminopyrimidin-4-yl)-3-methyl-indazol-6-yl]-2-(1-methyl-imidazol-2-yl)but-3-yn-2-ol] | 54 nM |
| Cc1cnc(C(C)(O)C#Cc2ccc3c(C)nn(-c4ccnc(N)n4)c3c2)cn1 (stereo not shown) [Example T1.1-91, 4-[1-(2-aminopyrimidin-4-yl)-3-methyl-indazol-6-yl]-2-(5-methyl-pyrazin-2-yl)but-3-yn-2-ol] | 69 nM |
| CC(C)(O)C#Cc1ccc2cnn(-c3nc(N)ncc3-c3cn[nH]c3)c2c1 [Example T1.1-92, 4-[1-[2-amino-5-(1H-pyrazol-4-yl)pyrimidin-4-yl]indazol-6-yl]-2-methyl-but-3-yn-2-ol] | 70 nM |
| Cc1cc(-n2nc(C)c3ccc(C#C[C@@](C)(O)c4noc(C)n4)cc32)nc(N)n1 [Example T1.1-93, (2R)-4-[1-(2-amino-6-methyl-pyrimidin-4-yl)-3-methyl-indazol-6-yl]-2-(5-methyl-1,2,4-oxadiazol-3-yl)but-3-yn-2-ol] | 78 nM |
| Cc1cc(-n2nc(C)c3ccc(C#CC(C)(O)c4ncccn4)cc32)nc(N)n1 (stereo not shown) [Example T1.1-94, 4-[1-(2-amino-6-methyl-pyrimidin-4-yl)-3-methyl-indazol-6-yl]-2-pyrimidin-2-yl-but-3-yn-2-ol] | 85 nM |
| Cn1ccc(C(C)(O)C#Cc2ccc3c(C(C)(C)O)nn(-c4ccnc(N)n4)c3c2)n1 (stereo not shown) [Example T1.1-95, 4-[1-(2-aminopyrimidin-4-yl)-3-(1-hydroxy-1-methyl-ethyl)indazol-6-yl]-2-(1-methylpyrazol-3-yl)but-3-yn-2-ol] | 87 nM |
| CC(C)(O)C#Cc1ccc2nc(OC3COC3)n(-c3ccnc(N)n3)c2c1 [Example T1.1-96, 4-[3-(2-aminopyrimidin-4-yl)-2-(oxetan-3-yloxy)benzimidazol-5-yl]-2-methyl-but-3-yn-2-ol] | 100 nM |
| Cc1cc(C(C)(O)C#Cc2ccc3nc(OC4CN(CCO)C4)n(-c4ccnc(N)n4)c3c2)no1 (stereo not shown) [Example T1.1-97, 4-[3-(2-aminopyrimidin-4-yl)-2-[1-(2-hydroxyethyl)azetidin-3-yl]oxy-benzimidazol-5-yl]-2-(5-methyl-isoxazol-3-yl)but-3-yn-2-ol] | 102 nM |
| Cc1nn(-c2ccnc(N)n2)c2cc(C#CC(C)(O)c3ncc[nH]3)ccc12 (stereo not shown) [Example T1.1-98, 4-[1-(2-aminopyrimidin-4-yl)-3-methyl-indazol-6-yl]-2-(1H-imidazol-2-yl)but-3-yn-2-ol] | 111 nM |
| Cc1nc2ccc(C#CC(C)(O)CC3CC3)cc2n1-c1ncnc(N)n1 (stereo not shown) [Example T1.1-99, 4-[3-(4-amino-1,3,5-triazin-2-yl)-2-methyl-benzimidazol-5-yl]-1-cyclopropyl-2-methyl-but-3-yn-2-ol] | 129 nM |
| Cc1nc2ccc(C#CC(C)(O)CO)cc2n1-c1ncnc(N)n1 (stereo not shown) [Example T1.1-100, 4-[3-(4-amino-1,3,5-triazin-2-yl)-2-methyl-benzimidazol-5-yl]-2-methyl-but-3-yne-1,2-diol] | 130 nM |
